Measured values published in patent publication US5767113A, “Compounds useful for concurrently activating glucocorticoid-induced response and reducing multidrug resistance” (The Salk Institute For Biological Studies, priority 1995, dated 1998).
Like-named read-outs stand apart in the source and are kept apart here.

Tests used:
CEM/VLB100 cells = assay: Reversal of vinblastine resistance in the CEM/VLB100 cell line (turbidity at 660 nm); type: cell-based, human
Description: (§1) Human CEM/VLB100 cells were distributed (5×10^4 cells/ml, 1 ml/well) into multiwell dishes and incubated for 5 days with 30 nM vinblastine and increasing concentrations of test compound, as indicated in the Figure. At the end of the incubation period, the turbidity values (at 660 nm) for each set of cultures were measured and expressed relative to cells that were incubated without test compound. These values represent the ability of test compound, relative to control (i.e., verapamil) to reverse CEM/VLB100 resistance to 30 nM vinblastine, as reflected by the relative amount of cell proliferation under a given set of growth conditions. Each value shown in the Figures is the average of 2 separate determinations.
II. Reversal of Vinblastine Resistance in the CEM/VLB100 Cell Line
as §1, with “The CEM/VLB100 cell line is a derivative of human CEM cells, selected for resistance to vinblastine. This cell line expresses the human MDR1 gene.” for “Human”, “FIG. 2.” for “the Figure.”, “compound” for “compound, relative to control (i.e., verapamil)”, “FIG. 2” for “the Figures”, “determinations. Results are also presented in the second data column of Table 1, wherein the ED50 values reflect the concentration of chemosensitizer that causes the Relative Turbidity value to be reduced by 50%.” for “determinations.”

S7dexΓ -1 cells = assay: Reversal of puromycin resistance in the S7dex-1 cell line (turbidity at 660 nm); type: cell-based, murine
Description: I. Reversal of Puromycin Resistance in the S7dexΓ -1 Cell Line
The S7dexΓ- 1 cell line is a glucocorticoid resistant derivative of the S7CD-5 cell line. It was selected on the basis of its resistance to the glucocorticoid agonist triamcinolone acetonide (5×10^-7 M) from S7CD-5 cells that had been mutagenized with N-methyl-N'-nitro-N-nitrosoguanidine. The apoptic response to glucocorticoid agonists is not elicited in the S7dexΓ -1 cells. Thus, murine S7dexΓ -1 cells were distributed (5×10^4cells/ml, 1 ml/well) into multiwell dishes and incubated for 5 days with 20 μM puromycin and increasing concentrations of test compound. At the end of the incubation period, the turbidity values (at 660 nm) for each set of cultures were measured and expressed relative to cells that were incubated without test compound. These values represent the ability of test compound to reverse S7dexΓ -1 resistance to 20 μM puromycin, as reflected by the relative amount of cell proliferation under a given set of growth conditions. The number of repetitions of each value presented in the first data column of Table 1 are indicated in parenthesis after each entry. In the Table, the ED50 values reflect the concentration of chemosensitizer that causes the Relative Turbidity value to be reduced by 50%.

[1] = system: murine thymoma W7TB cells; assay: Glucocorticoid agonist activity: glucocorticoid-induced apoptosis of murine thymoma W7TB cells (turbidity at 660 nm); type: cell-based; conditions: Mus musculus, 120 h, 5 days, agonist concentration that reduces Relative Turbidity to 50%, read-out: LD50 ^3
Description: FIG. 1 presents the results of an evaluation of the glucocorticoid agonist activity of several steroid analogs. The glucocorticoid-induced apoptosis of murine thymoma W7TB cells was taken as a measure of the agonist activity of steroid analogs. Murine W7TB cells were distributed (5×10^4 cells/ml/well) into multiwell dishes and incubated for 5 days with increasing concentrations of test compound, as indicated in the Figure. At the end of the incubation period, the turbidity values (at 660 nm) for each set of cultures were measured and expressed relative to cells that were incubated without test compound. These values represent the effect of test compound on the relative amount of cell proliferation under a given set of growth conditions. Each value shown in the Figures is the average of 2 separate determinations.
The glucocorticoid agonist activity of several steroid analogs was evaluated by determining the glucocorticoid-induced apoptosis of murine thymoma W7TB cells. Thus, murine W7TB cells were distributed (5×10^4 cells/ml/well) into multiwell dishes and incubated for 5 days with increasing concentrations of test compound, as indicated in FIG. 1. Dichlorisone is 1,4-pregnadiene-9α, 11β-dichloro-17α-21-diol-3,20-dione; "SA 44" is the 3,4-dimethoxy benzoic acid ester of dichlorisone; and "SA 47" is the 4-dimethylamino benzoic acid ester of dichlorisone. "17-DOD" is 17-deoxydexamethasone (i.e., 1,4-pregnadien-9α-fluoro-16αmethyl-11β,21-diol-3,20-dione); "SA 45" is the 4-dimethylamino benzoic acid ester of 17-DOD; and "SA 54" is the N-benzylcarbamate of 17-DOD.
At the end of the incubation period, the turbidity values (at 660 nm) for each set of cultures were measured and expressed relative to cells that were incubated without test compound. These values represent the effect of test compound on the relative amount of cell proliferation under a given set of growth conditions. Each value shown in FIGS. 1A and 1B is the average of 2 separate determinations. Results are also presented in the third data column of Table 1, wherein LD50 values reflect the agonist concentration that causes the Relative Turbidity value to be reduced to 50%.

[2] = read-out: ED50 ^2, 5 days with 30 nM vinblastine, chemosensitizer concentration that reduces Relative Turbidity by 50%
[3] = read-out: ED50 ^1; S7dex1 cells, 5 days with 20 μM puromycin; chemosensitizer concentration that reduces Relative Turbidity by 50%
[4] = 5 days with 30 nM vinblastine, chemosensitizer concentration that reduces Relative Turbidity by 50%, read-out: ED50 ^2
[5] = S7dex1 cells, 5 days with 20 μM puromycin; chemosensitizer concentration that reduces Relative Turbidity by 50%; read-out: ED50 ^1

Compound | IC50 (CEM/VLB100 cells; [2]) | IC50 (S7dexΓ -1 cells; [3]) | IC50 (CEM/VLB100 cells; [4]) | IC50 (S7dexΓ -1 cells; [5]) | IC50 [1]
COc1ccc(CCN(C)CCCC(C#N)(c2ccc(OC)c(OC)c2)C(C)C)cc1OC (stereo not shown) [Verapainil, verapamil, reference compound] | 1300 nM | 760 nM |  |  | 
C[C@@H]1C[C@H]2[C@@H]3CCC4=CC(=O)C=C[C@]4(C)[C@@]3(F)[C@@H](O)C[C@]2(C)[C@H]1C(=O)COC(=O)NCc1ccccc1 [SA 54, 1,4-Preqnadien-9αfluoro-16αmethyl-11β,21-diol-3 20-dione, 21-(N-benzylcarbamate)] |  |  | 1800 nM | 420 nM | 250 nM
C[C@@H]1C[C@H]2[C@@H]3CCC4=CC(=O)C=C[C@]4(C)[C@@]3(F)[C@@H](O)C[C@]2(C)[C@H]1C(=O)COC(=O)c1ccc(N(C)C)cc1 [SA 45, 1,4-Pregnadien-9α-fluoro-16αmethyl-11β,21-diol-3 20-dione, 21-(4-dimethylaminobenzoate)] |  |  | 2700 nM | 360 nM | 34 nM
CC(=O)[C@H]1CC[C@H]2[C@@H]3CCC4=CC(=O)CC[C@]4(C)[C@H]3CC[C@]12C [Progesterone, reference compound] |  |  | > 8000 nM | 1600 nM | 2400 nM
CN(C)c1ccc(C(=O)OCC(=O)[C@@]2(O)CC[C@H]3[C@@H]4CCC5=CC(=O)C=C[C@]5(C)[C@@]4(Cl)[C@@H](Cl)C[C@@]32C)cc1 [SA 47, 1,4-Pregnadien-9α,11β-dichloro-17α,21-diol-3,20-dione, 21-(4-dimethylaminogenzoate)] |  |  | 1100 nM | 450 nM | 13 nM
C[C@@H]1C[C@H]2[C@@H]3CCC4=CC(=O)C=C[C@]4(C)[C@@]3(F)[C@@H](O)C[C@]2(C)[C@H]1C(=O)CO [17-DOD, 1,4-Pregnadien-9α-fluoro-16α-methyl-11β,21-diol-3, 20-dione, reference compound] |  |  | > 8000 nM | 2700 nM | 5.3 nM
C[C@]12C=CC(=O)C=C1CC[C@H]1[C@@H]3CC[C@](O)(C(=O)CO)[C@@]3(C)C[C@H](Cl)[C@@]12Cl [Dichlorisone, 1,4-pregnadiene-9α,11β-dichloro-17α-21-diol-3,20-dione, reference compound] | > 8000 nM | > 8000 nM |  |  | 7.5 nM
COc1ccc(C(=O)OCC(=O)[C@@]2(O)CC[C@H]3[C@@H]4CCC5=CC(=O)C=C[C@]5(C)[C@@]4(Cl)[C@@H](Cl)C[C@@]32C)cc1OC [SA 44, 1,4-Pregnadien-9α11β-dichloro-17α,21-diol-3,20-dione, 21-(3,4-dimethoxybenzoate)] |  |  | 2500 nM | 440 nM | 14 nM
COc1ccc(C(=O)OCC(=O)[C@H]2[C@H](C)C[C@H]3[C@@H]4CCC5=CC(=O)C=C[C@]5(C)[C@@]4(F)[C@@H](O)C[C@@]32C)cc1OC [SA 43, 1,4-Pregnadien-9α-fluoro-16α-methyl-11β,21-diol-3,20-dione,21-(3 ,4-dimethoxybenzoate)] |  |  | 1200 nM |  | 18 nM
CC(=O)[C@H]1[C@H](C)C[C@H]2[C@@H]3CCC4=CC(=O)C=C[C@]4(C)[C@@]3(F)[C@@H](O)C[C@@]21C [SA 50, 1,4-Pregnadien-9αfluoro-16αmethyl-11β-ol-3 20-dione] |  |  | > 8000 nM | 530 nM | 9 nM
